Measurements: patent US20250302720A1, “PEPTIDE-BASED HAIR TREATMENT” (Sederma, priority 2020, published 2025)
Residues, ends and D or L forms follow the SMILES beside them.

What was measured:
[1] = system: Normal human melanocytes (NHM); test: Reduction of the ROS quantity in NHM (DCFH-DA probe, with or without H2O2 stress); type: cell-based; conditions: for ROS quantity, variation: 24 h, vs control, n = 3
Description: Normal human melanocytes (NHM) almost at confluence are brought into contact with the peptide according to the invention for 24 hours. At the end of this contact, the cells are contacted with a DCFH-DA probe which is inserted into these cells. After rinsing to remove the excess probe, the cells are placed in contact with H2O2 to mimic oxidative stress. A case without oxidative stress is also realized. The reaction of H2O2 with the probe in the cell is measured by fluorescence. An estimate of the quantity of cells is carried out in parallel to harmonize the results.

catalase = test: Catalase activity of the NHM (resorufin reagent); type: cell-based, human; conditions: 24 h, vs control
Description: NHM almost at confluence are brought into contact with the peptide according to the invention for 24 hours. At the end of this contact, the cells are crushed. The catalase activity extracted from these cells is measured using resorufin reagent. The latter combines with the H2O2 remaining in the reaction well after the action of cellular catalase. A protein assay using bicinchoninic acid (BCA) method is used to estimate the cell quantity to homogenize the obtained data.

BCL-2 gene = BCL-2 gene expression in NHM (qRTPCR); type: cell-based, human; conditions: 72 hours, vs control
Description: NHM are cultivated and brought into contact with the peptide according to the invention or its solvent. At the end of 72 hours of contact, the melanocytes are crushed, and the mRNA are recovered, converted into cDNA which are analyzed by a qRTPCR to evaluate the changes in the level of expression of the mRNA of BCL-2.

MC1R = MC1R labelling by immunohistology in isolated hair follicles; type: cell-based, human; conditions: 10 ppm, 8 days
Description: (§1) Follicles comprising their bulb with little pigment and isolated from a scalp plasty (resulting from cosmetic surgery— donor, dark blond; person) are placed individually in the wells of a culture plate containing the culture medium and maintained for survival (37° C.; 5% CO2).
(§2) Twelve follicles are reserved for T0 to serve as a reference for visual estimation and quantification of pigmentation but also for subsequent labeling of MC1R and MITF by immunohistology (six follicles for each marker).
(§3) Twelve follicles are placed in contact with the peptide according to the invention at 10 ppm in its solvent and twelve others in contact with the solvent alone for 8 days (0.1% DMSO in culture medium). At 8 days, all the follicles are stopped and fixed, then sectioned (7 μm) and marked with alunated carmine and photographed under a microscope. Sections of 6 of them (for each group) are used for visual and quantitative assessment by image analysis of their pigmentation (with specific filter to measure melanin). Sections of the other 6 are used for MC1R and MITF scoring, which is to be assessed by visual estimation.

MITF = MITF labelling by immunohistology in isolated hair follicles; type: cell-based, human; conditions: 10 ppm, 8 days; decreases in the control case
Description: as §1, §2, §3

[2] = system: grey/white hair of volunteers; test: In-vivo grey/white hair density in volunteers (standardized photos, Image J image analysis); design: species or system human
Description: The in-vivo tests were carried out by applying the hair lotion described above in point 1) in the Galenic part. This lotion comprises 90 ppm of the peptide of the invention. Four independent studies were conducted with a total of 84 volunteers (average age of the entire panel of selected volunteers was 42 years). All four studies were conducted over a wide range of geographical locations, times, seasons, application sites, phototypes and methods. The details are specified in the below table.
All the studies used a complex photographic system, with the camera mounted on a bench to ensure perfect repositioning of the volunteer's head at all study times. For each volunteer, profile photos, and in some studies also of the back or the top of the head, were taken in cross-polarized mode to eliminate any parasitic shine so as not to interfere with the image analysis photo treatment. These photos are used to both get an overview of the grey hair intensity and, by their quality, to work on a smaller isolated area.
The evaluation of the area occupied by grey/white hair was made in the photos with the NIH-USA™ Image J software by targeting the areas of interest.
Commonly, a short hair size (2 cm for example) was requested, except for test site 2, and that this size be the same for a volunteer at different measurement times to facilitate before-after comparisons.
Also, in common, each original photo, in color, was converted to an image with grey levels, the same level filter (thresholding operation) was applied before and after to the photos of the same volunteer. Non-black hair where thus selected. At the end, a binarization operation (black/white) was carried out to separate the non-black hairs (grey and white) from the blacks and to quantify the former.

[3] = 7 volunteers, behind the head, T 3 m
[4] = 7 volunteers, behind the head, T 6 m (3 months after the last application)
[5] = 10 volunteers, top of the head, T 4 m
[6] = 10 volunteers, top of the head, T 8 m (4 months after the last application)
[7] = lotion 90 ppm, 5 ml/d, 17 volunteers, one side (profile), T 3 m
[8] = lotion 90 ppm, 5 ml/d, 21 volunteers, behind the head, T 3 m
[9] = lotion 90 ppm, 5 ml/d, 21 volunteers, one side (profile)/temple, T 3 m
[10] = lotion 90 ppm, 5 ml/d, 25 volunteers, one side (profile), T 3 m
[11] = lotion 90 ppm, 5 ml/d, site 2, 18 volunteers, top of the head, T 4 m
[12] = lotion 90 ppm, 5 ml/d, site 2, 19 volunteers, top of the head, T3 m
[13] = lotion 90 ppm, 17 volunteers, one side (profile), T 3 m
[14] = lotion 90 ppm, 21 volunteers, behind the head, T 3 m
[15] = lotion 90 ppm, 21 volunteers, one side (profile)/temple, T 3 m
[16] = lotion 90 ppm, 25 volunteers, one side (profile), T 3 m

`CCCCCCCCCCCCCCCC(=O)N1CCC[C@H]1C(=O)N1CCC[C@H]1C(=O)O` [Pal-PP-OH, palmitoyl-prolyl-proline] (HELM PEPTIDE1{[CCCCCCCCCCCCCCCC(=O)[*:2]].P.P}$$$$V2.0) was tested, and the “ROS quantity, variation” value ([1]; 10 ppm, after the H2O2 stress) was −25%; p < 0.01, the “ROS quantity, variation” value ([1]; 10 ppm, without H2O2 stress (basal state)) was −23%; p < 0.01 and the “ROS quantity, variation” value ([1]; 12.5 ppm, after the H2O2 stress) was −33%; p < 0.01. For the same compound, the “ROS quantity, variation” value ([1]; 12.5 ppm, without H2O2 stress (basal state)) was −24%; p < 0.01, the “reduction of the production of intracellular peroxide” value ([1]; during oxidative stress, vs. control) was 33% and the “Catalase activity, Variation (%)” value (catalase; 10 ppm, n = 3) was “+31%; p < 0.01”. For the same compound, the “Catalase activity, Variation (%)” value (catalase; 12.5 ppm, n = 3) was “+37%; p < 0.01”, the “Catalase activity, Variation (%)” value (catalase; 12.5 ppm, n = 3, listed as peptide according to the invention) was “+37%” and the “expression of the BCL-2 gene, Variation (%)” value (from here on “expression … (%)”) (BCL-2 gene; 10 ppm, n = 4) was “+62%; p < 0.01”. For the same compound, the “expression … (%)” value (BCL-2 gene; 12.5 ppm, n = 4) was “+99%; p < 0.01”, the “expression … (%)” value (BCL-2 gene; 12.5 ppm, n = 4, listed as peptide of the invention) was “+99%” and the “MC1R in the lower sheaths, visual estimation vs control” value (MC1R) was “increased more”. For the same compound, the “MC1R in the bulb, visual estimation compared to T0” value (MC1R; stable in the control case) was “increased”, the “MITF in the bulb, visual estimation compared to T0” value (MITF) was “increased” and the “Grey hair density, Maximum” value [2, 3] was −70%. The “Grey hair density, Repondents” value [2, 3] was 100%, the “Grey hair density, Moyenne (%)” value ([2]; 7 volunteers, behind the head, T 3 m (end of 3 months of application)) was 3.14% and the “Grey hair density, Maximum” value [2, 4] was −60%. The “Grey hair density, Moyenne (%)” value [2, 4] was 3.00%, the “Grey hair density, Repondents” value [2, 4] was 100% and the “Grey hair density, Maximum” value [2, 5] was −22%. The “Grey hair density, Repondents” value [2, 5] was 100%, the “Grey hair density, Moyenne (%)” value ([2]; 10 volunteers, top of the head, T 4 m (end of 4 months of application)) was 39.36% and the “Grey hair density, Variation vs. T0” value ([2]; 10 volunteers, top of the head, T 4 m (end of 4 months of application), listed as peptide according to the invention) was −15.04%. For the same compound, the “Grey hair density, Maximum” value [2, 6] was −45%, the “Grey hair density, Moyenne (%)” value [2, 6] was 36.04% and the “Grey hair density, Repondents” value [2, 6] was 80%. For the same compound, the “Grey hair density, Variation vs. T0” value ([2]; 10 volunteers, top of the head, T 8 m (4 months after the last application), listed as peptide according to the invention) was −22.20%, the “decrease of the grey hair density on the temples, on average (3 tests)” value ([2]; after 3 months of application) was 32.4% and the “decrease of the grey hair density” value ([2]; after 3 months of application, back of the head, 21 volunteers) was 31.9%. The “decrease of the grey hair density” value ([2]; after 3 months of application, temples, 21 volunteers) was 37.5%, the “Grey hair density, Mean (%)” value [2, 7] was 7.50% and the “Grey hair density, Variation vs. T0” value [2, 7] was −21.1%. For the same compound, the “Grey hair density, Mean (%)” value [2, 8] was 3.28%, the “Grey hair density, Variation vs. T0” value [2, 8] was −31.9% and the “Grey hair density, Mean (%)” value [2, 9] was 4.78%. The “Grey hair density, Variation vs. T0” value [2, 9] was −37.5%, the “Grey hair density, Mean (%)” value [2, 10] was 1.90% and the “Grey hair density, Variation vs. T0” value [2, 10] was −38.7%. The “Grey hair density, Mean (%)” value [2, 11] was 39.78%, the “Grey hair density, Variation vs. T0” value [2, 11] was −10.90% and the “Grey hair density, Mean (%)” value [2, 12] was 40.22%. For the same compound, the “Grey hair density, Variation vs. T0” value [2, 12] was −8.80%, the “Grey hair density, Maximum variation” value [2, 13] was −67% and the “Grey hair density, respondents” value [2, 13] was 76%. The “Grey hair density, Maximum variation” value [2, 14] was −70%, the “Grey hair density, respondents” value [2, 14] was 95% and the “Grey hair density, Maximum variation” value [2, 15] was −70%. The “Grey hair density, respondents” value [2, 15] was 100%, the “Grey hair density, Maximum variation” value [2, 16] was −86% and the “Grey hair density, respondents” value [2, 16] was 68%. For the same compound, the “Grey hair density, respondents, mean of 3 studies” value ([2]; lotion 90 ppm, column Mean T 3 m vs. T0, one side (profile)) was 81%, the “Grey hair density, Variation vs. T0, Mean T 3 m vs. T0 of 3 studies” value ([2]; lotion 90 ppm, mean of the 3 studies (21, 25, 17 volunteers), one side (profile), T 3 m) was −32.43% and the “Grey hair density, Maximum” value ([2]; lotion 90 ppm, site 2, 18 volunteers, top of the head, T 4 m) was −23%. For the same compound, the “Grey hair density, respondents” value ([2]; lotion 90 ppm, site 2, 18 volunteers, top of the head, T 4 m, listed as peptide according to the invention) was 84%, the “Grey hair density, Maximum” value ([2]; lotion 90 ppm, site 2, 19 volunteers, top of the head, T3 m) was −26% and the “Grey hair density, respondents” value ([2]; lotion 90 ppm, site 2, 19 volunteers, top of the head, T3 m, listed as peptide according to the invention) was 79%. For the same compound, the “decrease in grey/white hair” value ([2]; top of the head, T 3 months) was 8.8% and the “decrease in grey/white hair” value ([2]; top of the head, after 4 months of use) was 10.9%.
